Columns and labels:
[1] = Water contact angle method on treated enamel chips; design: species or system bovine
Experimental: A water contact angle method is used to determine the degree of hydrophobicity imparted by the present compositions to tooth surfaces. […] The method uses polished bovine enamel chips that are cleaned using a prophy paste followed by an acetone wipe and water rinse in a sonicator. Chips are then allowed to air dry for 60-90 minutes, and then baseline water contact angles are measured using prop Shape Analysis System DSA 10-MK2 from KRUSS. Chips with baseline water contact angle of about 48.00±5.00 are selected and randomized into groups of three per treatment. Following randomization each group of three chips are treated with a solution or dentifrice slurry (1:3 ratio) containing the test ingredient followed by a water rinse. The chips are then soaked in human saliva for an hour at 37° C. After the saliva soak, the chips are removed, rinsed with water and air dried. Contact angle reading is taken after at least 2 hours of drying. Water or regular toothpaste (without organophosphate) are used as controls. […] An increase in contact angle (post-treatment value—baseline) represents increased hydrophobic character of the surface; a decrease represents increased hydrophilic character of the surface.

[2] = Dissolution of pretreated hydroxy apatite powder in acetate buffer pH 4.5
Experimental: In this protocol, HAP powder is pretreated with dentifrice slurry supernatant (20 g supernate/200 mg HAP powder) followed by three times washing with water. After the last wash, 2 ml of water is added and vortexed to form a uniform slurry. In a separate beaker, 25 ml of 0.1M acetate buffer is prepared and pH adjusted to 4.5. To this buffer solution having initial pH of 4.5, a sample of 0.5 ml of pre-treated HAP slurry is added and dissolution profile of the pretreated HAP powder is monitored via changes in pH of the acetate buffer solution. The pH change is measured and recorded using a Brinkman Titrino titrator device for 30 minutes. With HAP dissolution, pH increases and the pH change is compared to that of a plain water treated HAP as control and is used to calculate percent inhibition of HAP mineral loss.

[3] = In vitro erosion cycling protocol (citric acid challenge, TMR); design: species or system human; conditions: teeth treated with compositions containing the organophosphate
[4] = Table 1, change from baseline after treatment, 1 h saliva soak, concentrations as in label
[5] = Table 1, vs water treated HAP, concentrations as in label
[6] = Table 3, with or without water soluble hydrophilic compound

Row | Compound | Δ Water Contact Angle [1, 4] | % Inhibition of HAP Surface Loss [2, 5] [%] | Tooth mineral surface loss from acid exposure [3] | further results
1 | Sodium Dodeceth-9 Phosphate [1% Sodium Dodeceth-9 Phosphate] | 16.43 | 45.24 | significantly less tooth mineral surface loss | –
2 | Potassium Laureth Phosphate [1% Potassium Laureth Phosphate] | 45.43 | 89.7 | – | –
3 | CCCCCCCCCCCCOS(=O)(=O)[O-].[Na+] [1% SLS, sodium lauryl sulfate, reference compound] | 0.23 | – | – | –
4 | Sodium Dodeceth-1 Phosphate [1% Sodium Dodeceth-1 Phosphate] | 32.13 | 94.5 | significantly less tooth mineral surface loss | Δ Water Contact Angle ([1]; Table 2, concentration 0.25%): 19.07; Δ Water Contact Angle ([1]; Table 2, concentration 0.5%): 26.57; Δ Water Contact Angle ([1]; Table 2, concentration 1.0%): 43.77; Δ Water Contact Angle ([1]; Table 2, concentration 2.0%): 61.40; Δ Water Contact Angle [1, 6]: 32.13; % Inhibition of HAP Surface Loss ([2]; Table 2, concentration 0.25%): 58.56%; % Inhibition of HAP Surface Loss ([2]; Table 2, concentration 0.5%): 75.69%; % Inhibition of HAP Surface Loss ([2]; Table 2, concentration 1.0%): 92.03%; % Inhibition of HAP Surface Loss ([2]; Table 2, concentration 2.0%): 92.83%; % Inhibition of HAP Surface Loss [2, 6]: 94.49%
5 | CCCCCCCCCCCCOP(=O)([O-])[O-].[Na+].[Na+] [Sodium dodecyl phosphate] | – | – | significantly less tooth mineral surface loss | –
6 | Potassium Laureth-3 Phosphate [1% Potassium Laureth-3 Phosphate] | 23.2 | 94.8 | – | –

Reference: patent US20110089073A1, “Methods And Compositions For Hydrophobic Modification Of Oral Cavity Surfaces” (The Procter & Gamble Company, priority 2009, published 2011)
